Data reported in US20250025443A1, “COMPOUNDS AND METHODS FOR TREATING CORONA VIRUSES” (CLEAR CREEK BIO, INC., priority 2021, published 2025).

Target: SARS-CoV-2 Papain-Like Protease (PLpro) (Severe acute respiratory syndrome coronavirus 2 (2019-nCoV) (SARS-CoV-2), UniProt P0DTD1)
Assay: biochemical
Settings: PLpro enzymatic fluorescence assay; class symbols; read-out: PLpro IC50

Row | SMILES | IC50 [nM]
1 | CC(c1cccc2ccccc12)N1CCc2ccc([N+](=O)[O-])cc2C1 (centres unmarked) [Compound 127, 2-(1-(Naphthalen-1-yl)ethyl)-7-nitro-1,2,3,4-tetrahydroisoquinoline] | > 5000
2 | COc1cc(C2(NC(=O)c3cc(OCC4c5ccccc5CCN4C)ccc3C)CC2)c2cccnc2c1 (centres unmarked) [Compound 801, N-(1-(7-Methoxyquinolin-5-yl)cyclopropyl)-2-methyl-5-((2-methyl-1,2,3,4-tetrahydroisoquinolin-1-yl)methoxy)benzamide] | < 100
3 | Cc1ccc(OC[C@@H]2CCN2C)cc1C(=O)NC1(c2cc(-c3ccc(CN4CCOCC4)s3)cc3ncccc23)CC1 [Compound 793, (S)-2-Methyl-5-((1-methylazetidin-2-yl)methoxy)-N-(1-(7-(5-(morpholinomethyl)thiophen-2-yl)quinolin-5-yl)cyclopropyl)benzamide] | < 100
4 | [2H]C1([2H])C([2H])([2H])C1(NC(=O)c1cc(OC[C@@H]2CCN2C)ccc1C)c1cc(OC)cc2ncccc12 [Compound 794, (S)-N-(1-(7-Methoxyquinolin-5-yl)cyclopropyl-2,2,3,3-d4)-2-methyl-5-((1-methylazetidin-2-yl)methoxy)benzamide] | < 100
5 | Cc1ccc(NC2CN(C(=O)OC(C)(C)C)C2)cc1C(=O)NC1(c2cccc(-c3ccccc3)c2)CC1 [Compound 188, tert-Butyl 3-((3-((1-([1,1′-biphenyl]-3-yl)cyclopropyl)carbamoyl)-4-methylphenyl)amino)azetidine-1-carboxylate] | > 5000
6 | Cc1ccc(OC[C@@H]2CCN2C)cc1C(=O)NC1(c2cc(C3CCCC3)cc3ncccc23)CC1 [Compound 648, (S)-N-(1-(7-Cyclopentylquinolin-5-yl)cyclopropyl)-2-methyl-5-((1-methylazetidin-2-yl)methoxy)benzamide] | < 100
7 | Cc1ccc(OC[C@@H]2CCN2C)cc1C(=O)NC1(c2cc(-c3ccc(F)c(Cl)c3)cc3ncccc23)CC1 [Compound 687, (S)—N-(1-(7-(3-Chloro-4-fluorophenyl)quinolin-5-yl)cyclopropyl)-2-methyl-5-((1-methylazetidin-2-yl)methoxy)benzamide] | < 100
8 | CC(=O)c1cc(C2(NC(=O)c3cc(OC[C@@H]4CCN4C)ccc3C)CC2)c2cccnc2c1 [Compound 638, (S)-N-(1-(7-Acetylquinolin-5-yl)cyclopropyl)-2-methyl-5-((1-methylazetidin-2-yl)methoxy)benzamide] | < 100
9 | CC(c1cc(-c2cccs2)cc2ccccc12)N1CCC(C(=O)NCc2cccc(F)c2)CC1 (centres unmarked) [Compound 599, N-(3-Fluorobenzyl)-1-(1-(3-(thiophen-2-yl)naphthalen-1-yl)ethyl)piperidine-4-carboxamide] | 1000 to 5000
10 | Cc1ccc(OC[C@@H]2CCN2)cc1C(=O)NC1(c2cc(-c3nc4ccccc4o3)cc3ncccc23)CC1 [Compound 711, (S)-5-(Azetidin-2-ylmethoxy)-N-(1-(7-(benzo[d]oxazol-2-yl)quinolin-5-yl)cyclopropyl)-2-methylbenzamide] | < 100
11 | Cc1ccc(OCC(C)N)cc1C(=O)NC1(c2cc(-c3ccc(Cl)s3)cc3ccccc23)CC1 (centres unmarked) [Compound 502, 5-(2-Aminopropoxy)-N-(1-(3-(5-chlorothiophen-2-yl)naphthalen-1-yl)cyclopropyl)-2-methylbenzamide] | < 100
12 | Cc1nnc(-c2cc(C3(NC(=O)c4cc(OC[C@@H]5CCN5)ccc4C)CC3)c3cccnc3c2)s1 [Compound 673, (S)-5-(Azetidin-2-ylmethoxy)-2-methyl-N-(1-(7-(5-methyl-1,3,4-thiadiazol-2-yl)quinolin-5-yl)cyclopropyl)benzamide] | < 100
13 | Cc1ccc(OC[C@@H]2CCN2C)cc1C(=O)NC1(c2cc(OC(F)(F)F)cc3ncccc23)CC1 [Compound 579, (S)-2-Methyl-5-((1-methylazetidin-2-yl)methoxy)-N-(1-(7-(trifluoromethoxy)quinolin-5-yl)cyclopropyl)benzamide] | < 100

Same assay, conditions: SARS-CoV-2 PLpro enzymatic fluorescence assay; read-out: PLpro IC50

Row | SMILES | IC50 [nM]
14 | Cc1ccc(OCCN(C)C)cc1C(=O)NC1(c2cncc3ccccc23)CC1 [Compound 409, 5-(2-(Dimethylamino)ethoxy)-N-(1-(isoquinolin-4-yl)cyclopropyl)-2-methylbenzamide] | < 100
15 | Cc1cc2ccn(C3CCC3)c2cc1C(=O)NC1(c2cccc3ccccc23)CC1 [Compound 296, 1-Cyclobutyl-5-methyl-N-(1-(naphthalen-1-yl)cyclopropyl)-1H-indole-6-carboxamide] | 100 to 1000
16 | Cc1cc2cc(CN)[nH]c2cc1C(=O)N[C@H](C)c1cccc2ccccc12 [Compound 148, (R)-2-(Aminomethyl)-5-methyl-N-(1-(naphthalen-1-yl)ethyl)-1H-indole-6-carboxamide] | 100 to 1000
17 | COCCN1CCC1COc1ccc(C)c(C(=O)NC2(c3cccc4ccccc34)CC2)c1 (centres unmarked) [Compound 348, 5-((1-(2-Methoxyethyl)azetidin-2-yl)methoxy)-2-methyl-N-(1-(naphthalen-1-yl)cyclopropyl)benzamide] | < 100
18 | Cc1ccc(OCCN(C)C)cc1C(=O)NC1(c2ccccc2Br)CC1 [Compound 251, N-(1-(2-Bromophenyl)cyclopropyl)-5-(2-(dimethylamino)ethoxy)-2-methylbenzamide] | 100 to 1000
19 | Cc1ccc(OCC2(N)CC2)cc1C(=O)NC1(c2cccc3ccccc23)CC1 [Compound 256] | < 100
20 | Cc1ccc(OC[C@@H]2CCN2C)cc1C(=O)NC1(c2cc(C(F)(F)F)cc3ncccc23)CC1 [Compound 600, (S)-2-Methyl-5-((1-methylazetidin-2-yl)methoxy)-N-(1-(7-(trifluoromethyl)quinolin-5-yl)cyclopropyl)benzamide] | < 100
21 | COc1ccc2c(C3(NC(=O)c4cc(OC[C@@H]5CCN5C)ccc4C)CC3)cccc2n1 [Compound 544, (S)-N-(1-(2-Methoxyquinolin-5-yl)cyclopropyl)-2-methyl-5-((1-methylazetidin-2-yl)methoxy)benzamide] | < 100
22 | Cc1ccc(CCC2CCN2C)cc1C(=O)NC1(c2cccc3ccccc23)CC1 (centres unmarked) [Compound 455, 2-Methyl-5-(2-(1-methylazetidin-2-yl)ethyl)-N-(1-(naphthalen-1-yl)cyclopropyl)benzamide] | < 100
23 | c1ccc2c(C3(NCc4ccc5[nH]ncc5c4)CC3)cccc2c1 [Compound 178, N-((1H-indazol-5-yl)methyl)-1-(naphthalen-1-yl)cyclopropan-1-amine] | > 5000
24 | Cc1ccc(OCC23CCCN2CCC3)cc1C(=O)NC1(c2cccc3ccccc23)CC1 [Compound 376, 5-((Hexahydro-1H-pyrrolizin-7a-yl)methoxy)-2-methyl-N-(1-(naphthalen-1-yl)cyclopropyl)benzamide] | < 100
25 | Cc1ccc(NC2CNC2)cc1C(=O)NCc1cccc(-c2ccc(CN3CCCC3)s2)c1 [Compound 120, 5-(Azetidin-3-ylamino)-2-methyl-N-(3-(5-(pyrrolidin-1-ylmethyl)thiophen-2-yl)benzyl)benzamide] | > 5000
26 | Cc1ccc(OCC2CCN2C)cc1C(=O)NC1(c2cc(N(C)C)cc3ccccc23)CC1 (centres unmarked) [Compound 495, N-(1-(3-(Dimethylamino)naphthalen-1-yl)cyclopropyl)-2-methyl-5-((1-methylazetidin-2-yl)methoxy)benzamide] | < 100
27 | Cc1ccc(OC[C@@H]2CCN2C)cc1C(=O)NC1(c2cc(O)nc3ccccc23)CC1 [Compound 565, (S)-N-(1-(2-Hydroxyquinolin-4-yl)cyclopropyl)-2-methyl-5-((1-methylazetidin-2-yl)methoxy)benzamide] | < 100
28 | Cc1ccc(N)cc1S(=O)(=O)N[C@H](C)c1cccc2ccccc12 [Compound 138, (R)-5-Amino-2-methyl-N-(1-(naphthalen-1-yl)ethyl)benzenesulfonamide] | > 5000
29 | Cc1ccc(N)cc1C(=O)NC1(c2cccc3ccccc23)CCC1 [Compound 219, 5-Amino-2-methyl-N-(1-(naphthalen-1-yl)cyclobutyl)benzamide] | > 5000
30 | Cc1ccc(OC2CC(N)C2)cc1C(=O)NC1(c2cccc3ccccc23)CC1 (centres unmarked) [Compound 265, 5-(3-Aminocyclobutoxy)-2-methyl-N-(1-(naphthalen-1-yl)cyclopropyl)benzamide] | 100 to 1000
31 | Cc1ccc(OCCN(C)C)cc1C(=O)NC1(c2cccc(-c3ccccc3)c2)CC1 [Compound 291, N-(1-([1,1′-Biphenyl]-3-yl)cyclopropyl)-5-(2-(dimethylamino)ethoxy)-2-methylbenzamide] | 100 to 1000
32 | CC(c1cccc2ccccc12)N1CCC(C(=O)NCc2cccc(F)c2)C1 (centres unmarked) [Compound 144, N-(3-Fluorobenzyl)-1-(1-(naphthalen-1-yl)ethyl)pyrrolidine-3-carboxamide] | > 5000
33 | C=C(C)c1cc(C2(NC(=O)c3cc(OCC4CCN4C)ccc3C)CC2)c2ccccc2c1 (centres unmarked) [Compound 508, 2-Methyl-5-((1-methylazetidin-2-yl)methoxy)-N-(1-(3-(prop-1-en-2-yl)naphthalen-1-yl)cyclopropyl)benzamide] | < 100
34 | Cc1ccc(OC[C@@H]2CCN2C)cc1C(=O)NC1(c2cccc3nc(O)ccc23)CC1 [Compound 545, (S)-N-(1-(2-Hydroxyquinolin-5-yl)cyclopropyl)-2-methyl-5-((1-methylazetidin-2-yl)methoxy)benzamide] | < 100
35 | Cc1ccc(OCCN(C)C)cc1C(=O)NC1(c2ccccc2C)CC1 [Compound 282, 5-(2-(Dimethylamino)ethoxy)-2-methyl-N-(1-(o-tolyl)cyclopropyl)benzamide] | 1000 to 5000
36 | Cc1ccc(N)cc1C(=O)NC(C#N)c1cccc2ccccc12 (centres unmarked) [Compound 195, 5-Amino-N-(cyano(naphthalen-1-yl)methyl)-2-methylbenzamide] | > 5000
37 | CNCCOc1ccc(C)c(C(=O)NC2(c3cccc4ccccc34)CC2)c1 [Compound 233, 2-Methyl-5-(2-(methylamino)ethoxy)-N-(1-(naphthalen-1-yl)cyclopropyl)benzamide] | < 100
38 | Cc1ccc(OCCN(C)C)cc1C(=O)NC1(c2cccc(C3=CCCCC3)c2)CC1 [Compound 338, 5-(2-(Dimethylamino)ethoxy)-2-methyl-N-(1-(2′,3′,4′,5′-tetrahydro-[1,1′-biphenyl]-3-yl)cyclopropyl)benzamide] | 1000 to 5000
